Experimental data as given in ChEMBL document CHEMBL1201862, “PubChem BioAssay data set” (2004).
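How tested: cells in 96-well plates exposed to compound for 48 hours at five concentrations. At the GI50, growth is halved.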 The source made the active and inactive calls. No stated cut-off is given here; in the data, active = GI50 up to about 1.1 µM and inactive = higher.

How the values were obtained:
Assay in all cases: growth of human tumour cells (NCI), 48 h
T47D = test system: T47D
NCI-H226 = test system: NCI-H226
NCI-H522 = test system: NCI-H522
MDA-MB-435 = test system: MDA-MB-435
UO-31 = test system: UO-31
SR = test system: SR
SK-MEL-28 = test system: SK-MEL-28
HT-29 = test system: HT-29
OVCAR-4 = test system: OVCAR-4
OVCAR-8 = test system: OVCAR-8
HCC 2998 = test system: HCC 2998
HCT-116 = test system: HCT-116
Hs-578T = test system: Hs-578T
MDA-MB-231 = test system: MDA-MB-231
SK-OV-3 = test system: SK-OV-3
OVCAR-5 = test system: OVCAR-5
786-0 = test system: 786-0
ACHN = test system: ACHN
HL-60 = test system: HL-60

Row | Compound | GI50 (T47D) | GI50 (NCI-H226) | GI50 (NCI-H522) | GI50 (MDA-MB-435) | GI50 (UO-31) | GI50 (SR) | GI50 (SK-MEL-28) | GI50 (HT-29) | GI50 (OVCAR-4) | GI50 (OVCAR-8) | GI50 (HCC 2998) | GI50 (HCT-116) | GI50 (Hs-578T) | GI50 (MDA-MB-231) | GI50 (SK-OV-3) | GI50 (OVCAR-5) | GI50 (786-0) | GI50 (ACHN) | GI50 (HL-60)
1 | Cn1c2ccccc2c2c3c(c4c5ccccc5n(C)c4c21)C(=O)NC3=O | 46.1 µM (inactive) | 40.7 µM (inactive) | 21.2 µM (inactive) | > 42.7 µM (inactive) | > 54.2 µM (inactive) | < 0.01 µM (active) | > 65.2 µM (inactive) | > 32.5 µM (inactive) | 5.3 µM (inactive) | 18.7 µM (inactive) | > 33.7 µM (inactive) | > 64.1 µM (inactive) | 24.8 µM (inactive) | 13.4 µM (inactive) | 5.35 µM (inactive) | 72.8 µM (inactive) | 3.89 µM (inactive) |  | 
2 | O=C(O/N=C1/CCCC/C1=C\c1ccccc1)c1ccccc1 |  | > 100 µM (inactive) | 27.7 µM (inactive) |  | > 100 µM (inactive) | 43.5 µM (inactive) | > 100 µM (inactive) | 40 µM (inactive) |  | 42.5 µM (inactive) | > 100 µM (inactive) | 34 µM (inactive) |  |  | > 100 µM (inactive) | > 100 µM (inactive) | > 100 µM (inactive) | > 100 µM (inactive) | 20.2 µM (inactive)
3 | CCOC(=O)c1c(-c2ccccc2)oc(=O)c(Cc2cccc3cccnc23)c1-c1ccccc1 | > 10 µM (inactive) | > 10 µM (inactive) | > 10 µM (inactive) | > 10 µM (inactive) | > 10 µM (inactive) | > 10 µM (inactive) | > 10 µM (inactive) | > 10 µM (inactive) | > 10 µM (inactive) | > 10 µM (inactive) | > 10 µM (inactive) | > 10 µM (inactive) | > 10 µM (inactive) | > 10 µM (inactive) | > 10 µM (inactive) | > 10 µM (inactive) | > 10 µM (inactive) | > 10 µM (inactive) | > 10 µM (inactive)
4 | C[N+]1(c2ccccc2)C=C(c2ccccc2)SC1=S (centres undefined) | 1.67 µM (inactive) | > 100 µM (inactive) | 30.6 µM (inactive) | > 100 µM (inactive) | > 100 µM (inactive) | > 100 µM (inactive) | 7.33 µM (inactive) | 7.43 µM (inactive) |  | > 100 µM (inactive) | > 100 µM (inactive) | > 100 µM (inactive) | 66.1 µM (inactive) | > 100 µM (inactive) |  | > 100 µM (inactive) | > 100 µM (inactive) | > 100 µM (inactive) | > 100 µM (inactive)
5 | Cc1cc(C)nc(NS(=O)(=O)c2ccc(NC(=O)c3ccc4nc5ccccc5c(Nc5ccc(S(N)(=O)=O)cc5)c4c3)cc2)n1 | > 100 µM (inactive) | > 100 µM (inactive) | 34.2 µM (inactive) | > 100 µM (inactive) | > 100 µM (inactive) | 40.1 µM (inactive) | 86.7 µM (inactive) | 75.3 µM (inactive) | 83.8 µM (inactive) | > 100 µM (inactive) | > 100 µM (inactive) | > 100 µM (inactive) | 91.2 µM (inactive) | 94.2 µM (inactive) | > 100 µM (inactive) | > 100 µM (inactive) | > 100 µM (inactive) | > 100 µM (inactive) | 57.9 µM (inactive)
6 | O=C1CC2CCN(C(=O)c3ccccc3)CC2CCN1.O=C1CCC2CC(C(=O)c3ccccc3)CCC2CN1 (centres undefined) |  | > 100 µM (inactive) | > 100 µM (inactive) |  | > 100 µM (inactive) | > 100 µM (inactive) | > 100 µM (inactive) | > 100 µM (inactive) | > 100 µM (inactive) | > 100 µM (inactive) | > 100 µM (inactive) | > 100 µM (inactive) |  |  | > 100 µM (inactive) | > 100 µM (inactive) | > 100 µM (inactive) | > 100 µM (inactive) | > 100 µM (inactive)
7 | CN1CC(C(=O)C2C(=O)c3ccccc3C2=O)C(=O)C(=O)C(C(=O)C2C(=O)c3ccccc3C2=O)C1 (centres undefined) |  |  | > 100 µM (inactive) |  | > 100 µM (inactive) | > 100 µM (inactive) | > 100 µM (inactive) | > 100 µM (inactive) |  | 77.6 µM (inactive) | > 100 µM (inactive) | > 100 µM (inactive) |  |  | > 100 µM (inactive) | > 100 µM (inactive) | > 100 µM (inactive) | > 100 µM (inactive) | > 100 µM (inactive)
8 | CC(=O)OCc1cc2ccccc2nc1C(Br)(Br)Br | 27.8 µM (inactive) | 21.5 µM (inactive) | 16 µM (inactive) | 13.3 µM (inactive) | 15.6 µM (inactive) | 1.46 µM (inactive) | 17.9 µM (inactive) | 21.6 µM (inactive) | 11.8 µM (inactive) |  | 15.4 µM (inactive) | 12.5 µM (inactive) | 27 µM (inactive) | 19.3 µM (inactive) | 28.3 µM (inactive) | 15.4 µM (inactive) | 19.4 µM (inactive) | 13.2 µM (inactive) | 14.9 µM (inactive)
9 | N#Cc1nc(Nc2ccc(Cl)cc2)sc1N |  | 19.8 µM (inactive) | 3.01 µM (inactive) |  | 3.62 µM (inactive) | 1.51 µM (inactive) | 20.5 µM (inactive) | 19.7 µM (inactive) | 24 µM (inactive) | 16.7 µM (inactive) | 6.87 µM (inactive) | 6.44 µM (inactive) |  |  | 21.5 µM (inactive) | 12.1 µM (inactive) | 8.43 µM (inactive) | 3.86 µM (inactive) | 4.92 µM (inactive)
10 | CCOC(=O)c1s/c(=N\Nc2nc3ccccc3cc2C2OCCO2)n(Cc2ccccc2)c1C |  | > 100 µM (inactive) | > 100 µM (inactive) |  | > 100 µM (inactive) | 4.65 µM (inactive) | > 100 µM (inactive) | > 100 µM (inactive) | > 100 µM (inactive) | > 100 µM (inactive) |  | > 100 µM (inactive) |  |  | > 100 µM (inactive) | > 100 µM (inactive) | > 100 µM (inactive) | > 100 µM (inactive) | > 100 µM (inactive)
11 | COC(=O)[C@@H]1CSC(=S)N1C(=O)C[C@H]1CC=CC[C@H]1CC(=O)Sc1ccccc1 |  | 23.7 µM (inactive) | 12 µM (inactive) |  | 13.8 µM (inactive) | 8.99 µM (inactive) | 16.4 µM (inactive) | 19.8 µM (inactive) | > 10 µM (inactive) | 21 µM (inactive) | 17.9 µM (inactive) | 16.1 µM (inactive) |  |  | 27.8 µM (inactive) | 19.1 µM (inactive) | 17.5 µM (inactive) | 17.6 µM (inactive) | 3.47 µM (inactive)
12 | Cc1cn(S(=O)(=O)c2ccccc2)c2c(OCc3ccccc3)cc([N+](=O)[O-])cc12 | 29.2 µM (inactive) | 58.7 µM (inactive) | 70.5 µM (inactive) | 3.92 µM (inactive) | 69.3 µM (inactive) | < 0.01 µM (active) | 79.8 µM (inactive) | > 100 µM (inactive) | 86.3 µM (inactive) | > 100 µM (inactive) | > 100 µM (inactive) | > 100 µM (inactive) | 26 µM (inactive) | 80.9 µM (inactive) | 50.8 µM (inactive) | > 100 µM (inactive) | 27.1 µM (inactive) | 61.7 µM (inactive) | > 100 µM (inactive)
13 | Nc1nc(SCCC/C=C/B(O)O)nc2c1ncn2C1OC(COP(=O)(O)O)C(O)C1O (centres undefined) |  | > 203 µM (inactive) | 115 µM (inactive) |  | > 203 µM (inactive) | > 203 µM (inactive) | > 203 µM (inactive) | > 203 µM (inactive) | > 203 µM (inactive) | > 203 µM (inactive) |  | > 203 µM (inactive) |  |  | > 203 µM (inactive) | > 203 µM (inactive) | > 203 µM (inactive) | > 203 µM (inactive) | > 203 µM (inactive)
14 | O=C(N/C(=C\c1ccc2c(c1)OCO2)c1nc2ccccc2[nH]1)c1ccccc1 |  | 21 µM (inactive) | 14.7 µM (inactive) |  | 24.6 µM (inactive) | 21.9 µM (inactive) | 17.6 µM (inactive) | 4.98 µM (inactive) | 19.7 µM (inactive) | 37 µM (inactive) | 27.7 µM (inactive) | 31.3 µM (inactive) |  |  | 35.6 µM (inactive) | 37.6 µM (inactive) | 59.2 µM (inactive) | 33.3 µM (inactive) | 14.8 µM (inactive)
15 | N#CCC(=O)N/N=C(/C(=O)Nc1ccccc1)C1C(=O)N(c2ccccc2)N=C1N (centres undefined) |  | > 100 µM (inactive) | > 100 µM (inactive) |  | > 100 µM (inactive) | > 100 µM (inactive) | > 100 µM (inactive) | > 100 µM (inactive) | > 100 µM (inactive) | > 100 µM (inactive) | > 100 µM (inactive) | > 100 µM (inactive) |  |  | > 100 µM (inactive) | > 100 µM (inactive) | > 100 µM (inactive) | > 100 µM (inactive) | > 100 µM (inactive)
16 | Nc1nc(=O)c(/N=N/c2ccccc2)c(N)[nH]1 |  | 76 µM (inactive) | 47.4 µM (inactive) |  | 42.4 µM (inactive) | > 100 µM (inactive) | 24.8 µM (inactive) | 28.4 µM (inactive) | > 100 µM (inactive) | 43.5 µM (inactive) | 38.4 µM (inactive) | 16.1 µM (inactive) |  |  | 60.3 µM (inactive) | 41.3 µM (inactive) | 55 µM (inactive) | 27.4 µM (inactive) | 28.1 µM (inactive)
17 | CCCCCCCCCCCCCCCC(=O)NC1CCc2cc(O)c(O)c(O)c2-c2ccc(SC)c(=O)cc21 (centres undefined) |  | 10.6 µM (inactive) | 2.37 µM (inactive) |  | 8.22 µM (inactive) | 2.79 µM (inactive) | 6.67 µM (inactive) | 13.1 µM (inactive) | 10.3 µM (inactive) | 7.67 µM (inactive) | 4.01 µM (inactive) | 3.86 µM (inactive) |  |  | 14.4 µM (inactive) | 12.9 µM (inactive) | 16.6 µM (inactive) | 8.04 µM (inactive) | 3.35 µM (inactive)
